The test system of data set [1] is Human males aged between 65 and 90. Briefly: Associative learning task (colour-number association recall) in aged males. It is filed as in vivo. On the procedure: Human males aged between 65 and 90 are separated into four random groups: control, low dose of P5P (100 mg/day), medium dose of P5P (250 mg/day), and high dose of P5P (750 mg/day). All dosages are administered orally for 3 weeks before subjecting the patients to an associative learning task.
The patients are subjected to an associative learning task, as follows. Briefly, patients are comfortably seated in front of a computer. Patients are asked to learn the associations between six colors and the numbers 1-6, using trial and error. Subjects are then required to recall this association, a defined period of time after the associations are learned. Tests are repeated, with the defined period of time increasing, until the patients are no longer able to associate the colors with the numbers.

Another data set has as its system healthy subjects. Kind of data set: Phase I single ascending dose study, safety and tolerance. Format: in vivo, human. The settings on record: single oral dosages up to 4000 mg. The procedure: A Phase I, single center, single-dose, open-label, sequential ascending dose study to evaluate the safety and tolerance of pyridoxal-5′-phosphate, in an enteric-coated tablet, following a single dose of 250 mg, 750 mg, 1000 mg, and 4000 mg in healthy subjects under fasting conditions was conducted.
A total of 32 healthy, adult subjects signed the study-specific Informed Consent Form and were confined in the clinical study unit; of these subjects, 24 (6 subjects in each dose level; 3 males and 3 females) were dosed and were enrolled in the study; all of these enrolled subjects completed the study. Subjects were confined to the SFBC Anapharm Clinical Research Facility from at least 12 hours prior to drug administration until after the 24.0-hour post-dose blood draw.
Subjects enrolled in this study were members of the community at large. […] All participating subjects were judged eligible for the study when assessed against the inclusion and exclusion criteria. […]

The next data set concerns P2 purinoceptors. The settings on record: cited from earlier work.
Data set [2] relates to Individuals diagnosed with mild depression. Briefly: Assessment of level of depression by depression inventory scales and DSM-IV. Format: in vivo, human. On the procedure: Individuals diagnosed with mild depression are divided into four groups at random: control, low dose of P5P (100 mg/day), medium dose of P5P (250 mg/day), and high dose of P5P (750 mg/day). All dosages are administered orally for 3 weeks.
The level of depression of the individuals is assessed, both before, and after treatment, using conventional methodologies. These include completion of several depression inventory questionnaire scales including the Cornell Scale for Depression in Dementia, Centre for Epidemiologic Studies Depression Scale, The Geriatric Depression Scale (Short Version), Beck Depression Inventory and the Zung Self-Rating Depression Scale as well as diagnosis by a trained professional according to the DSM-IV. These questionnaires measure depression through questions related to appetite, sadness, worthlessness/inadequacy, concentration, exhaustion, failure, retardation, socialization, isolation, anxiety, irritability, agitation, loss of interest, lack of energy, diurnal mood variation, insomnia, suicidal thoughts, low self-esteem, pessimism, mood congruent delusions, satisfaction, withdrawal, fulfillment, mood, fear, guilt, self-accusations, somatic preoccupation and loss of libido.

A further data set relates to healthy people. The settings on record: U.S. National Academy of Sciences recommendation; cited from earlier work.
Another data set deals with males, ages 70-79 years. As to conditions: 20 mg daily for 3 months; cited from earlier work.
Where [3] appears, read: 250 mg/day vs 750 mg/day orally for 3 weeks.
[4] abbreviates: P5P 100, 250 or 750 mg/day orally for 3 weeks.

On to `Cc1ncc(COP(=O)(O)O)c(C=O)c1O` [P5P, 3-hydroxy-2-methyl-5-[(phosphonooxy)methyl]-4-pyridine-carboxaldehyde], for which the “associative learning and memory, medium vs high dose group” value in data set [1] (setting [3]) is “no significant difference”. In data set [1] (setting [4]), the “time after which the number-colour association can be recalled, vs control patients” value is recorded as “significantly longer time”. Besides, the “tolerability (side effects, evidence of toxicity)” value in the data set with healthy subjects is “well tolerated”. The “effect on ATP induced calcium ion influx into cells” value in the data set on P2 purinoceptors is given as “inhibits”. The “level of depression, medium vs high dose group” value in data set [2] (setting [3]) is “not significantly different”. The “level of depression, medium and high dose groups vs low dose group” value in data set [2] (250 and 750 mg/day vs 100 mg/day orally for 3 weeks) was “significantly less depressed”. Further, in data set [2] (setting [4]), the “level of depression vs control individuals” value is on record as “significantly less depressed”.

For the compound `Cc1ncc(CO)c(CO)c1O` [pyridoxine], in the data set on healthy people, the “Tolerable Upper Intake Level” value was 100 mg.

vitamin B6: the “information storage vs matched placebo group” value in the data set with males, ages 70-79 years is “improved information storage”.

These data come from patent publication US20100196342A1, “MOOD, MEMORY AND COGNITIVE FUNCTION WITH PYRIDOXAL 5'-PHOSPHATE” (priority 2007, published 2010).
